The values that follow come from PMC12019385 (Scientific Reports, 2025).

Assay [1] addresses Hsp70 A (heat shock 70 kDa protein A) (Caenorhabditis elegans, UniProt P09446). The experiment in a line: microscale thermophoresis. The class given is binding.
The target in assay [2] is V-ATPase A (V-type proton ATPase catalytic subunit A) (Caenorhabditis elegans, UniProt Q9XW92). The experiment in a line: microscale thermophoresis. The class given is binding. A general note: Microscale thermophoresis detects binding through changes in fluorescence in a small temperature gradient.
V-ATPase A (V-type proton ATPase catalytic subunit A), sequence (Q9XW92 whole entry): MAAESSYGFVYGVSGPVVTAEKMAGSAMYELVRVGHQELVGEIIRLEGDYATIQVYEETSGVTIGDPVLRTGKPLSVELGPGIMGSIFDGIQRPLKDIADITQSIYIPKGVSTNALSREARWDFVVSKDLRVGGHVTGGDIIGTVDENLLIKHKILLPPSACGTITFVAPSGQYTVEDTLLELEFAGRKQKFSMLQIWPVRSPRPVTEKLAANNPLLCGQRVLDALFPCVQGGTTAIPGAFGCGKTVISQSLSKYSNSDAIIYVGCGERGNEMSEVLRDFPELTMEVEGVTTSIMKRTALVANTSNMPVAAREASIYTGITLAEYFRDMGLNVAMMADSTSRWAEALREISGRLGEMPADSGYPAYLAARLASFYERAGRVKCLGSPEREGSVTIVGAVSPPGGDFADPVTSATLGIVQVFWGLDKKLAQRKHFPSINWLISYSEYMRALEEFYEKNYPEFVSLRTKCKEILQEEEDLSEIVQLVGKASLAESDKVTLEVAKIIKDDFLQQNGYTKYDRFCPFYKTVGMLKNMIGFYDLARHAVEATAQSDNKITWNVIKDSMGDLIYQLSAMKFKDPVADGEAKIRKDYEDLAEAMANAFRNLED

Hsp70 A (heat shock 70 kDa protein A), sequence (P09446 whole entry): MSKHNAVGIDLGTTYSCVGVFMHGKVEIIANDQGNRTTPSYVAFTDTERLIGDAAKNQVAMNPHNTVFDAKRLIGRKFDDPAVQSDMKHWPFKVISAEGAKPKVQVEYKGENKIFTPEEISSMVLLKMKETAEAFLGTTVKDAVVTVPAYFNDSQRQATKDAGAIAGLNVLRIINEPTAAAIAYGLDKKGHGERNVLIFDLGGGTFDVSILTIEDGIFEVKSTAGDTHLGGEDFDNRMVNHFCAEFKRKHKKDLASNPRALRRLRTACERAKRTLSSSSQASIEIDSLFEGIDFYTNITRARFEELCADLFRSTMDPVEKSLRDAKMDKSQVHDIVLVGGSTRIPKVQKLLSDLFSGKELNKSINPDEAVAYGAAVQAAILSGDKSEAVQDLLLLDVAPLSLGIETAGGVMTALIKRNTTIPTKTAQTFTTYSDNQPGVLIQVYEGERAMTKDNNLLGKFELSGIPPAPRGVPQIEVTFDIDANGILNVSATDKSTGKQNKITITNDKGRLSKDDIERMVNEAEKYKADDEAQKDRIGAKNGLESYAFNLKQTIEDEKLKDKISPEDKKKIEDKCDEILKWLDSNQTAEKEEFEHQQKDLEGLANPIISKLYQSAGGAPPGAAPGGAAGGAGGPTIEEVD

As a reminder, the Kd is the constant that tells how readily two partners part at equilibrium. As to `CCCCCCCCCC(C)=O` [2-undecanone], the Kd was determined as 117 ± 16.3 nM in assay [1] and 302 ± 43.9 nM in assay [2].
